Compound in one test: O=[As]([O-])(O)O.[K+] [potassium arsenate]
Kind of test: thermal stability z-score vs DMSO; higher = more thermally stabilized by treatment. As to conditions: HeLa; arsenate concentration 1 mM. How it is done:
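Cellular thermal proteome profiling in HeLa cells treated with 1 mM arsenate for 1 h (DMSO pretreatment), heated to ten temperatures (37-66.3 °C). Soluble protein was quantified by TMT mass spectrometry relative to DMSO controls; the thermal stability score was transformed to a z-score; mean of n = 3 experiments.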

Compound in the next test: NC(=O)CCCCC1CCSS1 [lipoamide]
The description is as above. The conditions noted are these: HeLa, lipoamide concentration 100 µM. Here is the method: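 Cellular thermal proteome profiling in HeLa cells. Cells were treated with 100 µM lipoamide for 1 h, with or without 1 mM arsenate for a further 1 h, then heated to ten temperatures (37-66.3 °C), and soluble protein was quantified by TMT mass spectrometry relative to 0.1% DMSO controls. The thermal stability score (sum of log2 fold changes minus the abundance score) was transformed to a z-score; mean of n = 3 experiments.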

[1] abbreviates: arsenate co-treatment: 1 mM arsenate 1 h.
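Note: each temperature applied for 3 min, abundance score taken as mean log2 fold change at the two lowest temperatures, z-score obtained by mean subtraction and division by SD.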

Chain of UniProt Q15742 (Q15742 whole entry): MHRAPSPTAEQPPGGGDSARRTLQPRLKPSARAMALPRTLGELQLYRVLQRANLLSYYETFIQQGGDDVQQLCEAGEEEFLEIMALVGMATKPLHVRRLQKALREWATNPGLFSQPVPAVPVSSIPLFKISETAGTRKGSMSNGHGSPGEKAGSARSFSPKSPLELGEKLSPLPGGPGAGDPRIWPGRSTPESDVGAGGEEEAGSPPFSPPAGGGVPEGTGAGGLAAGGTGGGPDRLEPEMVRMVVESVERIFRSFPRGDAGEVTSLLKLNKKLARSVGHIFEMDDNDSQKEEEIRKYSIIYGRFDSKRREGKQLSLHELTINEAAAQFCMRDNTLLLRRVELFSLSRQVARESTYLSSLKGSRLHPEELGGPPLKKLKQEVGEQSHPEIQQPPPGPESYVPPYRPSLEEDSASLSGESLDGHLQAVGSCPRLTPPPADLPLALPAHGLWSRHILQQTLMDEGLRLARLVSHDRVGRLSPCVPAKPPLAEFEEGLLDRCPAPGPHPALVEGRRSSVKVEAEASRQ
Chain of UniProt P43490 (P43490 whole entry, looked up): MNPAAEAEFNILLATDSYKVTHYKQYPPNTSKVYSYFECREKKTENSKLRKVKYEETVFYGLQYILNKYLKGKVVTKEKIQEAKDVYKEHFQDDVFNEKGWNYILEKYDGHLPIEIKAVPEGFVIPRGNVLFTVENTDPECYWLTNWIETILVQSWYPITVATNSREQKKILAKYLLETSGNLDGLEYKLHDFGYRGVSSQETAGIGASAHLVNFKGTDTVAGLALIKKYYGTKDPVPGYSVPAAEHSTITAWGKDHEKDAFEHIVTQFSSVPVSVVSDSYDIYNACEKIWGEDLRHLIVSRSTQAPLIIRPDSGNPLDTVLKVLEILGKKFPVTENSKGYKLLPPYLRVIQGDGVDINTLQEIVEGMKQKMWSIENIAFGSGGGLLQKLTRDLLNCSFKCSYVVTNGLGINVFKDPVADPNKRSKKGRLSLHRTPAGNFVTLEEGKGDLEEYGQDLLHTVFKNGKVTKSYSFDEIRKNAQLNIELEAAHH
Chain of UniProt Q99747 (Q99747 whole entry): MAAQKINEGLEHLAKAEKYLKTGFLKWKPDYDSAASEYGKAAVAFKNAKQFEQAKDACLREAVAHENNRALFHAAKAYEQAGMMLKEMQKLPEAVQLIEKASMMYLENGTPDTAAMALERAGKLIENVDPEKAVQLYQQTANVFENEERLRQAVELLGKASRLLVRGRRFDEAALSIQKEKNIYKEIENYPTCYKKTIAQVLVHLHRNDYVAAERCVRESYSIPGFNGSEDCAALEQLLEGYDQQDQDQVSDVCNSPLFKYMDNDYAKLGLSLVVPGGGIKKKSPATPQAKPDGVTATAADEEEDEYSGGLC
Chain of UniProt Q96HR8 (Q96HR8 whole entry): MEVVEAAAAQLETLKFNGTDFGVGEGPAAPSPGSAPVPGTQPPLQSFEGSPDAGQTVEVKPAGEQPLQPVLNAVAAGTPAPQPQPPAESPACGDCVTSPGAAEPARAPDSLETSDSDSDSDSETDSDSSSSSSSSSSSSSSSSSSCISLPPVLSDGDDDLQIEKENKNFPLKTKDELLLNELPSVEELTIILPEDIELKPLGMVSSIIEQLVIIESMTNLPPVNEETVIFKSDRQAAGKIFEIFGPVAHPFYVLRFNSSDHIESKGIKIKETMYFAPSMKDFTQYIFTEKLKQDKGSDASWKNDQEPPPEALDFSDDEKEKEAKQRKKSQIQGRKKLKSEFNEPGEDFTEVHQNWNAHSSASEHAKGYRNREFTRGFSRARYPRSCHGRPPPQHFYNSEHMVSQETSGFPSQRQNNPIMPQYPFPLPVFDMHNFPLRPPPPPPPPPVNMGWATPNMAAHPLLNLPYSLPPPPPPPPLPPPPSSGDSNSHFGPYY
Chain of UniProt P17050 (P17050 whole entry): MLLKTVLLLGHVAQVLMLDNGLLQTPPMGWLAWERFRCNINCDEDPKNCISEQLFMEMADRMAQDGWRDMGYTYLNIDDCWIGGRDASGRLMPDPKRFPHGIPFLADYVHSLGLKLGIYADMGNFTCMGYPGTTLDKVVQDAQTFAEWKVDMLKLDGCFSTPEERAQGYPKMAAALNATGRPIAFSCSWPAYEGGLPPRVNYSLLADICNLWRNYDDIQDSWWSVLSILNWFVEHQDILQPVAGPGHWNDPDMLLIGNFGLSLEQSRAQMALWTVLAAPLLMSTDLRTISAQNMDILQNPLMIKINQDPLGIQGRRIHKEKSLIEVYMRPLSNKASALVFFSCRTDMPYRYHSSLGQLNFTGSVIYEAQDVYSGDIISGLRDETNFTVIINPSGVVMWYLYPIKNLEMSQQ
Chain of UniProt Q96I59 (Q96I59 whole entry): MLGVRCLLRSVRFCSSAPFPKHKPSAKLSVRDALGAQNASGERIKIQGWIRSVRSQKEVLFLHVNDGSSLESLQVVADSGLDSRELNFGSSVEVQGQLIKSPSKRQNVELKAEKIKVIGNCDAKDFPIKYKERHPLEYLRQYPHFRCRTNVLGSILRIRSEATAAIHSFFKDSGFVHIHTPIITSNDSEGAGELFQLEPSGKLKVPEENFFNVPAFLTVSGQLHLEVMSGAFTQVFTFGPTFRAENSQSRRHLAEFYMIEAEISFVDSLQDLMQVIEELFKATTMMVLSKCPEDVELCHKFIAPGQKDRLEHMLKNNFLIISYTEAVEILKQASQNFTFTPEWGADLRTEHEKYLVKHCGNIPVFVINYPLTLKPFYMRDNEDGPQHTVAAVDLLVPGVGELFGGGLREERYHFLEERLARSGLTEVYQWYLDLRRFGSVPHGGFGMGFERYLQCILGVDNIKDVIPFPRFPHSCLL
Chain of UniProt Q9GZZ1 (Q9GZZ1 whole entry): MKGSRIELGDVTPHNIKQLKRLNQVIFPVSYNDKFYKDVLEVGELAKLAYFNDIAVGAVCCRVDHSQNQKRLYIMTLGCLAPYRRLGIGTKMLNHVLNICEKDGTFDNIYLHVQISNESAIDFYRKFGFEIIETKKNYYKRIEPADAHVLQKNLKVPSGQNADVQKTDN
Chain of UniProt Q8IW45 (Q8IW45 whole entry): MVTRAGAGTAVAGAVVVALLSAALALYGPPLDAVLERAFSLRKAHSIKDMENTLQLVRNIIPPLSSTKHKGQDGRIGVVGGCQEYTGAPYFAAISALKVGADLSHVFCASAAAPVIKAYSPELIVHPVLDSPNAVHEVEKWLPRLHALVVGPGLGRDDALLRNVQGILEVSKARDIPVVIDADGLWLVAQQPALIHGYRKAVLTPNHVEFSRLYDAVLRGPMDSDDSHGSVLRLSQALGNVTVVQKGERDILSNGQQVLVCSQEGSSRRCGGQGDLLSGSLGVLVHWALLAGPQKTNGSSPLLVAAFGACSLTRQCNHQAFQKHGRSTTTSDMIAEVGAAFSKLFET
Chain of UniProt Q6IA69 (Q6IA69 whole entry): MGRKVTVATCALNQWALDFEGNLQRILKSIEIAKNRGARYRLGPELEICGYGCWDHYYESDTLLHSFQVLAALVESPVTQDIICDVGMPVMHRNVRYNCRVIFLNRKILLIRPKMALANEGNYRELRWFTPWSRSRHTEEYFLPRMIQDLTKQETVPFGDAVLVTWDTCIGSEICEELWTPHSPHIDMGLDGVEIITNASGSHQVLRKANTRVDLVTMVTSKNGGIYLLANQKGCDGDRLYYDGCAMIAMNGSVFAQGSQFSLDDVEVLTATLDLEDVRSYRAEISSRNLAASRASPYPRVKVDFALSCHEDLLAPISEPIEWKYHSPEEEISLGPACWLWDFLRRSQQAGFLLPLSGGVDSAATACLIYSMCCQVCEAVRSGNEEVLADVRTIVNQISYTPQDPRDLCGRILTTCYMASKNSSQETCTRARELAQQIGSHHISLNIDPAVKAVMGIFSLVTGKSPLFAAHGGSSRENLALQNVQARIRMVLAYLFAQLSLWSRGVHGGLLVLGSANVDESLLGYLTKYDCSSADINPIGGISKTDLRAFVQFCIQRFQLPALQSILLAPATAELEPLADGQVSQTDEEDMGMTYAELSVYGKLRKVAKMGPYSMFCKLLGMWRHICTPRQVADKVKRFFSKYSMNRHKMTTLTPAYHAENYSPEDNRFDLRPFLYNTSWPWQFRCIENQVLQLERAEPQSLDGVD
Chain of UniProt O95544 (O95544 whole entry): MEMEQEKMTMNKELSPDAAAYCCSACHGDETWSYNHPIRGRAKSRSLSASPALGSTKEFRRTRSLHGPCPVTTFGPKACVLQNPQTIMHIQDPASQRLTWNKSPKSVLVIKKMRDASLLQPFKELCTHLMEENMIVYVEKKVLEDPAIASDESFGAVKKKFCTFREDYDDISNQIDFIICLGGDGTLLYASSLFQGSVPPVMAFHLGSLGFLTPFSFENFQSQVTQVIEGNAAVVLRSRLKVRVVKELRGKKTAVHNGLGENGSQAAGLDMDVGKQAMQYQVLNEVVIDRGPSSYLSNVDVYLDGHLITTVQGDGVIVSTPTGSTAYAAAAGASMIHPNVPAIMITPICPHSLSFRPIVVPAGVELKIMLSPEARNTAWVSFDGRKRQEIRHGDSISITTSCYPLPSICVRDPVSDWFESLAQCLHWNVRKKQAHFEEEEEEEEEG
Chain of UniProt P54920 (P54920 whole entry): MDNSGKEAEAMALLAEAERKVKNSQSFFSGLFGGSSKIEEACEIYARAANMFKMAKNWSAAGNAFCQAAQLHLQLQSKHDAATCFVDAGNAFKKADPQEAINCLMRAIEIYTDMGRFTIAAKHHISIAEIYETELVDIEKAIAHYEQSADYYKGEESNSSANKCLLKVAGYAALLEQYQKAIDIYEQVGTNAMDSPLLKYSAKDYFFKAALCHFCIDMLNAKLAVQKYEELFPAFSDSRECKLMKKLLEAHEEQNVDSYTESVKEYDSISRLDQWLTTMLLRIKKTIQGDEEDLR
Chain of UniProt Q8TBE9 (Q8TBE9 whole entry): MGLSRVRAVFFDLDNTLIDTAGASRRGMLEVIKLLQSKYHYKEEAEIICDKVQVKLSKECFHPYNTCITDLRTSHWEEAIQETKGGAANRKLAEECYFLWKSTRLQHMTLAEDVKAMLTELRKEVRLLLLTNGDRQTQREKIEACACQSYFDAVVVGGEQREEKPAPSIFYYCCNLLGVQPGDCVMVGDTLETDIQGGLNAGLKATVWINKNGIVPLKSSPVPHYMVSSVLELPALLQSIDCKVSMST

In the case of NAA20 (UniProt P61599), the thermal stability z-score in the test with potassium arsenate is 0.0823; with lipoamide (setting [1]) it was 0.753; in the test with lipoamide (arsenate co-treatment: none) it was 0.153.

NAA25 (UniProt Q14CX7): the thermal stability z-score with potassium arsenate was -0.0259; with lipoamide (setting [1]), 0.177; in the test with lipoamide (arsenate co-treatment: none), 0.0532.

Turning to NAA30 (UniProt Q147X3), the thermal stability z-score was -0.43 with potassium arsenate, -0.282 in the test with lipoamide (setting [1]) and 0.317 in the test with lipoamide (arsenate co-treatment: none).

In the case of NAA35 (UniProt Q5VZE5), the thermal stability z-score with potassium arsenate was 0.265; with lipoamide (setting [1]), 0.334; in the test with lipoamide (arsenate co-treatment: none) it was 0.635.

Regarding NAA38 (UniProt Q9BRA0), the thermal stability z-score in the test with potassium arsenate was -0.643; with lipoamide (setting [1]), 0.599; with lipoamide (arsenate co-treatment: none), 0.425.

Take NAA40 (UniProt Q86UY6): the thermal stability z-score in the test with potassium arsenate was 0.0387; in the test with lipoamide (setting [1]), -0.126; in the test with lipoamide (arsenate co-treatment: none), 0.2.

For the target NAA50 (UniProt Q9GZZ1), the thermal stability z-score was 0.502 with potassium arsenate, 0.872 in the test with lipoamide (setting [1]) and 0.589 in the test with lipoamide (arsenate co-treatment: none).

For NAB2 (UniProt Q15742), the thermal stability z-score with potassium arsenate was 1.18; in the test with lipoamide (setting [1]) it was -0.402; with lipoamide (arsenate co-treatment: none) it was -2.02.

Turning to NABP2 (UniProt Q9BQ15), the figures for the thermal stability z-score in the test with potassium arsenate, in the test with lipoamide (setting [1]) and with lipoamide (arsenate co-treatment: none) were -0.112, -0.423 and -0.174, respectively.

As for NACA, the thermal stability z-score with potassium arsenate was 0.508; with lipoamide (setting [1]) it was 0.468; in the test with lipoamide (arsenate co-treatment: none), 0.47.

On to NACC1 (UniProt Q96RE7), for which the thermal stability z-score was -0.423 with potassium arsenate, -0.376 with lipoamide (setting [1]) and -0.495 with lipoamide (arsenate co-treatment: none).

As to NADK2 (UniProt Q4G0N4), the thermal stability z-score with potassium arsenate is -0.584; with lipoamide (setting [1]) it was 0.539; with lipoamide (arsenate co-treatment: none), 0.491.

Turning to NADK (UniProt O95544), the thermal stability z-score in the test with potassium arsenate was -0.183; with lipoamide (setting [1]), 0.88; with lipoamide (arsenate co-treatment: none), 0.314.

As to NADSYN1 (UniProt Q6IA69), the thermal stability z-score with potassium arsenate is -0.0415; in the test with lipoamide (setting [1]) it was 0.995; in the test with lipoamide (arsenate co-treatment: none), 0.788.

For the target NAE1 (UniProt Q13564), the thermal stability z-score is -0.18 in the test with potassium arsenate, -0.406 with lipoamide (setting [1]) and -0.333 with lipoamide (arsenate co-treatment: none).

As to NAF1 (UniProt Q96HR8), the thermal stability z-score worked out at 0.149 with potassium arsenate, 0.316 in the test with lipoamide (setting [1]) and 0.23 with lipoamide (arsenate co-treatment: none).

In the case of NAGA (UniProt P17050), the thermal stability z-score with potassium arsenate is 0.546; in the test with lipoamide (setting [1]) it was -0.786; with lipoamide (arsenate co-treatment: none) it was -0.0771.

NAGK (UniProt Q9UJ70): the thermal stability z-score is -0.921 with potassium arsenate, 0.0756 in the test with lipoamide (setting [1]) and -0.796 with lipoamide (arsenate co-treatment: none).

Turning to NAGLU (UniProt P54802), the thermal stability z-score with potassium arsenate is 0.253; in the test with lipoamide (setting [1]) it was 0.208; in the test with lipoamide (arsenate co-treatment: none), -0.281.

Turning to NAGPA (UniProt Q9UK23), the thermal stability z-score was -1.05 with potassium arsenate, -0.847 in the test with lipoamide (setting [1]) and -0.928 in the test with lipoamide (arsenate co-treatment: none).

Regarding NAMPT (UniProt P43490), the thermal stability z-score is -0.494 with potassium arsenate, 0.551 in the test with lipoamide (setting [1]) and 0.0412 with lipoamide (arsenate co-treatment: none).

On to NANP (UniProt Q8TBE9), for which the thermal stability z-score with potassium arsenate is -0.582; in the test with lipoamide (setting [1]) it was 0.191; with lipoamide (arsenate co-treatment: none), 0.0578.

As for NANS (UniProt Q9NR45), the thermal stability z-score came out at 0.887 in the test with potassium arsenate, 0.185 with lipoamide (setting [1]) and 0.107 with lipoamide (arsenate co-treatment: none).

For the target NAP1L1 (UniProt P55209), the thermal stability z-score with potassium arsenate is -0.164; with lipoamide (setting [1]), -0.552; with lipoamide (arsenate co-treatment: none), -0.224.

For the target NAP1L4 (UniProt Q99733), the values for the thermal stability z-score with potassium arsenate, in the test with lipoamide (setting [1]) and with lipoamide (arsenate co-treatment: none) were -0.384, -0.0111 and 0.113, respectively.

With NAPA (UniProt P54920), the thermal stability z-score with potassium arsenate stood at 1.02; in the test with lipoamide (setting [1]), 0.374; in the test with lipoamide (arsenate co-treatment: none), 0.143.

Consider NAPG (UniProt Q99747), for which the thermal stability z-score was 0.0503 with potassium arsenate, -0.212 with lipoamide (setting [1]) and -0.012 in the test with lipoamide (arsenate co-treatment: none).

As for NAPRT (UniProt Q6XQN6), the thermal stability z-score with potassium arsenate was -0.197; in the test with lipoamide (setting [1]), -0.379; in the test with lipoamide (arsenate co-treatment: none), -0.0584.

Turning to NARF (UniProt Q9UHQ1), the figures for the thermal stability z-score with potassium arsenate, in the test with lipoamide (setting [1]) and in the test with lipoamide (arsenate co-treatment: none) were -0.0435, 0.102 and -0.133, respectively.

As for NARFL (UniProt Q9H6Q4), the figures for the thermal stability z-score with potassium arsenate, with lipoamide (setting [1]) and with lipoamide (arsenate co-treatment: none) were -0.0417, 0.327 and 0.0715, respectively.

As for NARS2 (UniProt Q96I59), the thermal stability z-score in the test with potassium arsenate was -0.19; with lipoamide (setting [1]), -0.454; with lipoamide (arsenate co-treatment: none), 0.256.

NARS (UniProt O43776): the thermal stability z-score is 1.17 in the test with potassium arsenate, -0.596 in the test with lipoamide (setting [1]) and -0.292 in the test with lipoamide (arsenate co-treatment: none).

In the case of NASP (UniProt P49321), the thermal stability z-score was 0.578 with potassium arsenate, -0.412 with lipoamide (setting [1]) and 0.0851 with lipoamide (arsenate co-treatment: none).

Regarding NAT6 (UniProt Q93015), the thermal stability z-score is -0.338 in the test with potassium arsenate, 0.0786 with lipoamide (setting [1]) and -0.349 with lipoamide (arsenate co-treatment: none).

On to NAT10 (UniProt Q9H0A0), for which the thermal stability z-score is -0.812 in the test with potassium arsenate, 0.444 with lipoamide (setting [1]) and -0.105 with lipoamide (arsenate co-treatment: none).

As for NAV1 (UniProt Q8NEY1), the thermal stability z-score with potassium arsenate was 0.073; with lipoamide (setting [1]), -0.0334; in the test with lipoamide (arsenate co-treatment: none) it was 0.0173.

Take NAV2 (UniProt Q8IVL1): the thermal stability z-score with potassium arsenate was -0.055; with lipoamide (setting [1]), 0.0134; in the test with lipoamide (arsenate co-treatment: none), -0.0355.

As for NAXD (UniProt Q8IW45), the thermal stability z-score was 0.0249 in the test with potassium arsenate, -0.31 in the test with lipoamide (setting [1]) and 0.472 with lipoamide (arsenate co-treatment: none).

In the case of NAXE (UniProt Q8NCW5), the thermal stability z-score in the test with potassium arsenate is -0.422; with lipoamide (setting [1]), 0.137; with lipoamide (arsenate co-treatment: none), 0.266.

For the target NBAS (UniProt A2RRP1), the results for the thermal stability z-score with potassium arsenate, with lipoamide (setting [1]) and in the test with lipoamide (arsenate co-treatment: none) were -0.0529, 0.00568 and 0.0731, respectively.

For NBEAL1 (UniProt Q6ZS30), the thermal stability z-score was -0.119 in the test with potassium arsenate, 0.108 with lipoamide (setting [1]) and -0.0292 with lipoamide (arsenate co-treatment: none).

Regarding NBEAL2 (UniProt Q6ZNJ1), the figures for the thermal stability z-score in the test with potassium arsenate, with lipoamide (setting [1]) and with lipoamide (arsenate co-treatment: none) were 0.0522, -0.0914 and 0.0428, respectively.

Turning to NBN (UniProt O60934), the results for the thermal stability z-score in the test with potassium arsenate, in the test with lipoamide (setting [1]) and in the test with lipoamide (arsenate co-treatment: none) were -0.469, 0.219 and 0.275, respectively.
